Assay results from patent US12247033B2, “Triazole-substituted imidazo[1,2-a]pyrimidines as cGAS inhibitors” (GlaxoSmithKline Intellectual Property Development Limited, priority 2022, dated 2025).
Where a name gives a salt, the structure may show the parent alone.

The compounds below were run against human CGAS (157-522) (Homo sapiens, UniProt Q8N884) (assay: biochemical).
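Also: biochemical enzyme reaction, 2′3′-cGAMP product measured by RapidFire mass spectrometry (MRM) normalised to c-di-UMP internal standard, inhibition of product formation relative to high and low control wells.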
Experimental: Compounds were serially diluted 2, 3, or 4-fold in neat DMSO to generate 11-point dose response curves and then 250 nL compound or DMSO solution was transferred to Greiner 384-well V-bottom assay plates (Catalog #781280) using an Echo acoustic dispenser (Labcyte). A solution of 150 μM ATP, 150 μM GTP, 20 μM pppGpA (GTP-2′5′-AMP, custom synthesis from ChemGenes), and 10 μg/mL sheared salmon sperm DNA (Sigma, Catalog #D1626) in assay buffer (20 mM Trizma, pH 7.5, 10 mM magnesium chloride, 0.3 mM CHAPS, and 0.01% (w/v) bovine serum albumin) was added to columns 1-17, 19-24 of the plate at 12.5 μL/well using a Combi liquid handler (ThermoFisher). A 12.5 μL/well low control solution containing 150 μM ATP, 150 μM GTP, 20 μM pppGpA in assay buffer was added to column 18 using the Combi. A 12.5 μL/well solution of 10-100 nM human CGAS (157-522) in assay buffer was then added to all wells of the plate using the Combi. […] Reactions were quenched by added 50 μL/well of 0.5% (v/v) trifluoroacetic acid (TFA) in mass spectrometry grade deionized water containing 5 μM cyclic-di-UMP (ci-di-UMP; Invivogen Catalog #tlrl-cdu) as the internal standard (IS). Plates were centrifuged for 1 min and then quenched reactions were analyzed using a RF-MS 300 system operating in a Multiple Reaction Monitoring (MRM) detection mode.
Samples (10 μL injection volume) were passed over a silica C18/type C solid phase extraction (SPE) cartridge for analyte (2′3′-cyclic guanosine monophosphate adenosine monophosphate (2′3′-cGAMP), product of biochemical reaction)/pppGpA/c-di-UMP IS adsorption. Adsorbed samples were desalted for 3000 ms using a 100% water eluent A/desalting solution. Afterwards, desalted samples were eluted using a 0.5% TFA in 20%/80% acetonitrile/water eluent B/elution solution directly into either a Sciex 4000, 5000 or 5500 triple quadrupole mass spectrometer (QQQ-MS) for MRM analyte/IS detection. QQQ-MS detection conditions were as follow: scan type: MRM; curtain (CUR) gas: 30 psi; nebulizer (GS1) gas: 50 psi; drying (GS2) gas: 60 psi; collisionally activated dissociation (CAD) gas: 12 relative setting; precursor ion (Q1) masses: 2′3′-cGAMP: m/z 675.1 Da/pppGpA: m/z 853.0 Da/c-di-UMP: m/z 613.1 Da; fragment ion (Q3) masses: 2′3′-cGAMP: m/z 524.1 Da/pppGpA: m/z 702.0 Da/c-di-UMP: 307.1 Da; declustering potentials (DPs): 2′3′-cGAMP: +81 V/pppGpA: +85 V/c-di-UMP: +85 V; entrance potential: +10 V (all analytes); collision energies (CEs): 2′3′-cGAMP: +33 V/pppGpA: +36 V/c-di-UMP: +35 V; collision cell exit potential (CXP): +10 V (all analytes); interface heater (Sciex 4000/5000 only): on; Q1 resolution: unit (all analyte); Q3 resolution: unit (all analytes). The area under the curve (AUC) for all analytes was obtained using the RapidFire Integrator software application to calculate AUC-2′3′-cGAMP/AUC-c-di-UMP intensity ratio. Percent product formation was calculated by comparison to column 6 (high control)/column 18 (low control) responses. The % product inhibition was calculated as follows:
[formula] where A is the minimum response, B is the maximum response, C is the log10*XC50, D is the slope factor, and x is the log10 compound concentration [M] in ABASE XE.

Sequence of human CGAS (157-522) (Q8N884 157-522): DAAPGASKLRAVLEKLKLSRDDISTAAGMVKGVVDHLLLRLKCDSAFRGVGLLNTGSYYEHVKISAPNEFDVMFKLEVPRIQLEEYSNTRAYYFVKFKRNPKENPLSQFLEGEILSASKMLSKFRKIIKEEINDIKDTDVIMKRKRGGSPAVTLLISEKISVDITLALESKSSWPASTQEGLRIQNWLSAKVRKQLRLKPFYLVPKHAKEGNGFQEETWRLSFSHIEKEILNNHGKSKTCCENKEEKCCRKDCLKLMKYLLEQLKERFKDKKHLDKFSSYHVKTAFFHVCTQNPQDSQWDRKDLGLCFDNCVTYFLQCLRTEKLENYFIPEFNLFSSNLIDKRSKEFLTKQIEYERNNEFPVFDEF

Row | IC50 | SMILES
1 | 10 nM | FC(F)(F)c1n[nH]c(-c2nc3ncccn3c2-c2cn[nH]c2)n1 [Example 11, 5-[3-(1H-pyrazol-4-yl)imidazo[1,2-a]pyrimidin-2-yl]-3-(trifluoromethyl)-1H-1,2,4-triazole, trifluoroacetic acid salt]
2 | 12.6 nM | CN1Cc2cn3c(-c4cnc[nH]4)c(-c4nc(C(F)(F)F)n[nH]4)nc3nc2C(F)(F)C1 [Example 18, 13,13-difluoro-6-(1H-imidazol-5-yl)-11-methyl-5-[3-(trifluoromethyl)-1H-1,2,4-triazol-5-yl]-2,4,7,11-tetraazatricyclo[7.4.0.0^3,7]trideca-1,3,5,8-tetraene, trifluoroacetic acid salt]
3 | 2 nM | CS(=O)(=O)Oc1cnc2nc(-c3nc(C(F)(F)F)n[nH]3)c(-c3cnc[nH]3)n2c1 [Example 20, 3-(1H-Imidazol-5-yl)-2-(3-(trifluoromethyl)-1H-1,2,4-triazol-5-yl)imidazo[1,2-a]pyrimidin-6-yl methanesulfonate]
4 | 3.16 nM | COC(=O)c1ccn2c(-c3cn[nH]c3)c(-c3nc(Br)n[nH]3)nc2n1 [Example 35, methyl 2-(3-bromo-1H-1,2,4-triazol-5-yl)-3-(1H-pyrazol-4-yl)imidazo[1,2-a]pyrimidine-7-carboxylate]
5 | 3.16 nM | COC(=O)c1ccn2c(-c3c[nH]cn3)c(-c3nc(Br)n[nH]3)nc2n1 [Example 36, methyl 2-(3-bromo-1H-1,2,4-triazol-5-yl)-3-(1H-imidazol-4-yl)imidazo[1,2-a]pyrimidine-7-carboxylate]
6 | 3.16 nM | Brc1n[nH]c(-c2nc3ncccn3c2-c2c[nH]cn2)n1 [Example 37, 3-bromo-5-[3-(1H-imidazol-4-yl)imidazo[1,2-a]pyrimidin-2-yl]-1H-1,2,4-triazole, trifluoroacetic acid salt]
7 | 25.1 nM | CC(C)Oc1ccn2c(-c3c[nH]cn3)c(-c3nc(Br)n[nH]3)nc2n1 [Example 40, 3-bromo-5-[3-(1H-imidazol-4-yl)-7-(propan-2-yloxy)imidazo[1,2-a]pyrimidin-2-yl]-1H-1,2,4-triazole]
8 | 25.1 nM | FC(F)(F)c1n[nH]c(-c2nc3nc(N4CCOCC4)ccn3c2-c2c[nH]cn2)n1 [Example 42, 4-[3-(1H-imidazol-4-yl)-2-[3-(trifluoromethyl)-1H-1,2,4-triazol-5-yl]imidazo[1,2-a]pyrimidin-7-yl]morpholine]
9 | 15.8 nM | CN(C)c1ccn2c(-c3cnc[nH]3)c(-c3nc(C(F)(F)F)n[nH]3)nc2n1 [Example 43]
10 | 3.16 nM | FC(F)(F)c1n[nH]c(-c2nc3ncc(Cl)cn3c2-c2cnc[nH]2)n1 [Example 45, 5-[6-chloro-3-(1H-imidazol-5-yl)imidazo[1,2-a]pyrimidin-2-yl]-3-(trifluoromethyl)-1H-1,2,4-triazole]
11 | 1.58 nM | CCc1nc2nc(-c3nc(C(F)(F)F)n[nH]3)c(-c3cnc[nH]3)n2cc1C [Example 47, 5-[7-ethyl-3-(1H-imidazol-5-yl)-6-methylimidazo[1,2-a]pyrimidin-2-yl]-3-(trifluoromethyl)-1H-1,2,4-triazole]
12 | 2 nM | FC(F)(F)c1n[nH]c(-c2nc3nc4c(cn3c2-c2cnc[nH]2)CCO4)n1 [Example 48, 12-(1H-imidazol-5-yl)-11-[3-(trifluoromethyl)-1H-1,2,4-triazol-5-yl]-6-oxa-1,8,10-triazatricyclo[7.3.0.0^3,^7]dodeca-2,7,9,11-tetraene]
13 | 12.6 nM | COc1cc(OC)n2c(-c3c[nH]cn3)c(-c3nc(C(F)(F)F)n[nH]3)nc2n1 [Example 49, 5-[3-(1H-imidazol-4-yl)-5,7-dimethoxyimidazo[1,2-a]pyrimidin-2-yl]-3-(trifluoromethyl)-1H-1,2,4-triazole]
14 | 10 nM | COc1cn2c(-c3c[nH]cn3)c(-c3nc(C(F)(F)F)n[nH]3)nc2nc1C [Example 51, 5-[3-(1H-imidazol-4-yl)-6-methoxy-7-methylimidazo[1,2-a]pyrimidin-2-yl]-3-(trifluoromethyl)-1H-1,2,4-triazole]
15 | 5.01 nM | Cc1cn2c(-c3cnc[nH]3)c(-c3nc(C(F)(F)F)n[nH]3)nc2nc1C [Example 52, 5-[3-(1H-imidazol-5-yl)-6,7-dimethylimidazo[1,2-a]pyrimidin-2-yl]-3-(trifluoromethyl)-1H-1,2,4-triazole]
16 | 15.8 nM | OC1CCN(c2ccn3c(-c4cnc[nH]4)c(-c4nc(C(F)(F)F)n[nH]4)nc3n2)C1 (centres unmarked) [Example 53, 1-[3-(1H-imidazol-5-yl)-2-[3-(trifluoromethyl)-1H-1,2,4-triazol-5-yl]imidazo[1,2-a]pyrimidin-7-yl]pyrrolidin-3-ol]

Row | IC50 | SMILES
17 | 6.31 nM | Cc1cnc2nc(-c3nc(C(F)(F)F)n[nH]3)c(-c3cnc[nH]3)n2c1 [Example 54, 5-[3-(1H-imidazol-5-yl)-6-methylimidazo[1,2-a]pyrimidin-2-yl]-3-(trifluoromethyl)-1H-1,2,4-triazole]
18 | 20 nM | OC1CCCN(c2ccn3c(-c4cnc[nH]4)c(-c4nc(C(F)(F)F)n[nH]4)nc3n2)C1 (centres unmarked) [Example 56, 1-[3-(1H-imidazol-5-yl)-2-[3-(trifluoromethyl)-1H-1,2,4-triazol-5-yl]imidazo[1,2-a]pyrimidin-7-yl]piperidin-3-ol]
19 | 12.6 nM | COc1nc2nc(-c3nc(C(F)(F)F)n[nH]3)c(-c3cnc[nH]3)n2cc1C [Example 59, 5-[3-(1H-imidazol-5-yl)-7-methoxy-6-methylimidazo[1,2-a]pyrimidin-2-yl]-3-(trifluoromethyl)-1H-1,2,4-triazole]
20 | 0.794 nM | Oc1cnc2nc(-c3nc(C(F)(F)F)n[nH]3)c(-c3cnc[nH]3)n2c1 [Example 60, 3-(1H-imidazol-5-yl)-2-[3-(trifluoromethyl)-1H-1,2,4-triazol-5-yl]imidazo[1,2-a]pyrimidin-6-ol]
21 | 10 nM | O=C(O)Cc1cnc2nc(-c3nc(C(F)(F)F)n[nH]3)c(-c3cnc[nH]3)n2c1 [Example 92, 2-[3-(1H-imidazol-5-yl)-2-[3-(trifluoromethyl)-1H-1,2,4-triazol-5-yl]imidazo[1,2-a]pyrimidin-6-yl]acetic acid]
22 | 1580 nM | CC(C)(C)CNC(=O)c1cnc2nc(-c3nc(C(F)(F)F)n[nH]3)c(-c3cnc[nH]3)n2c1 [Example 94, N-(2,2-dimethylpropyl)-3-(1H-imidazol-5-yl)-2-[3-(trifluoromethyl)-1H-1,2,4-triazol-5-yl]imidazo[1,2-a]pyrimidine-6-carboxamide]
23 | 7940 nM | FC(F)(F)c1ccn2c(-c3cnc[nH]3)c(-c3ncn[nH]3)nc2n1 [Example 97, 5-[3-(1H-imidazol-5-yl)-7-(trifluoromethyl)imidazo[1,2-a]pyrimidin-2-yl]-1H-1,2,4-triazole]
24 | 794 nM | Cc1n[nH]c(-c2nc3nc(C(F)(F)F)ccn3c2-c2cnc[nH]2)n1 [Example 98, 5-[3-(1H-imidazol-5-yl)-7-(trifluoromethyl)imidazo[1,2-a]pyrimidin-2-yl]-3-methyl-1H-1,2,4-triazole]
25 | 3.16 nM | O=C(O)c1ccn2c(-c3c[nH]cn3)c(-c3nc(C(F)(F)F)n[nH]3)nc2n1 [Example 102, 3-(1H-imidazol-4-yl)-2-[3-(trifluoromethyl)-1H-1,2,4-triazol-5-yl]imidazo[1,2-a]pyrimidine-7-carboxylic acid]
26 | 7.94 nM | CC(O)C(O)COCc1cnc2nc(-c3nc(C(F)(F)F)n[nH]3)c(-c3cnc[nH]3)n2c1 (centres unmarked) [Example 112, 1-{[3-(1H-imidazol-5-yl)-2-[3-(trifluoromethyl)-1H-1,2,4-triazol-5-yl]imidazo[1,2-a]pyrimidin-6-yl]methoxy}butane-2,3-diol]
27 | 5.01 nM | [O-][S+]1CCc2nc3nc(-c4nc(C(F)(F)F)n[nH]4)c(-c4cnc[nH]4)n3cc2C1 (centres unmarked) [Example 116, 6-(1H-imidazol-5-yl)-5-[3-(trifluoromethyl)-1H-1,2,4-triazol-5-yl]-11λ^4-thia-2,4,7-triazatricyclo[7.4.0.0^3,^7]trideca-1,3,5,8-tetraen-11-one]
28 | 158 nM | FC(F)(F)c1n[nH]c(-c2nc3ncc(COc4cccnc4)cn3c2-c2cnc[nH]2)n1 [Example 119, 3-{[3-(1H-imidazol-5-yl)-2-[3-(trifluoromethyl)-1H-1,2,4-triazol-5-yl]imidazo[1,2-a]pyrimidin-6-yl]methoxy}pyridine]
29 | 5.01 nM | FC(F)(F)c1n[nH]c(-c2nc3ncc(CCN4CCOCC4)cn3c2-c2cnc[nH]2)n1 [Example 122, 4-{2-[3-(1H-imidazol-5-yl)-2-[3-(trifluoromethyl)-1H-1,2,4-triazol-5-yl]imidazo[1,2-a]pyrimidin-6-yl]ethyl}morpholine]
30 | 15800 nM | Cn1cc(-c2c(-c3nc(C(F)(F)F)n[nH]3)nc3ncccn23)cn1 [Example 131, 5-[3-(1-methyl-1H-pyrazol-4-yl)imidazo[1,2-a]pyrimidin-2-yl]-3-(trifluoromethyl)-1H-1,2,4-triazole]
31 | 39.8 nM | CN1CCC(Oc2ccn3c(-c4c[nH]cn4)c(-c4nc(C(F)(F)F)n[nH]4)nc3n2)CC1 [Example 132, 4-{[3-(1H-imidazol-4-yl)-2-[3-(trifluoromethyl)-1H-1,2,4-triazol-5-yl]imidazo[1,2-a]pyrimidin-7-yl]oxy}-1-methylpiperidine]
32 | 7.94 nM | Cc1cn(C)c(COCc2cnc3nc(-c4nc(C(F)(F)F)n[nH]4)c(-c4c[nH]cn4)n3c2)n1 [Example 158, 5-(6-{[(1,4-dimethyl-1H-imidazol-2-yl)methoxy]methyl}-3-(1H-imidazol-4-yl)imidazo[1,2-a]pyrimidin-2-yl)-3-(trifluoromethyl)-1H-1,2,4-triazole]
